Results on 1 compound are retold here after US3989598A (priority 1962, dated 1976).

The nature of the data set: solubility. The note with it: listed as hydrochloride. It counts as physicochemical.

Structures can show the parent of a compound that is named as a salt.

On to `COc1cccc2c1C(=O)c1c(O)c3c(c(O)c1C2=O)C[C@@](O)(C(C)=O)C[C@@H]3O[C@H]1C[C@H](N)[C@H](O)[C@H](C)O1` [13057 RP daunorubicin hydrochloride], for which the solubility in chloroform entry (chloroform) is reported as “slightly soluble”. The solubility in water result (water) is recorded as “soluble”.
